Measurements published in patent US4039550A, “Lower-alkyl (5-substituted-2-pyridyl)carbamodithioates” (Sterling Drug Inc., priority 1976, dated 1977).

What was measured:
N. dubius [1] = test: Anthelmintic single-dose test in mice against N. dubius (S.D. and ED50); format: in vivo, Nematospiroides dubius in Swiss mice; conditions: for ED50: Heligmosomoides polygyrus, against N. dubius, single oral dose, dose necessary to remove 50% of the worm burden, read-out: ED50 on single dose administration
Description: (§1) Anthelmintic activity was determined in mice against one species of roundworm (Nematospiroides dubius), one species of pinworm (Syphacia obvelata) and one species of tapeworm (Hymenolepis nana). The various test procedures used are described as follows: Swiss mice weighing approximately 20 grams were infected with approximately 20 larvae of N. dubius which were administered in 10% gelatin via stomach tube. For screening purposes, compounds, made up in 10% galatin, were administered via stomach tube in equally divided daily doses for four consecutive days beginning fourteen days after infection. Four days after the final medication, the animals were sacrificed and examined for the presence of worms. Efficacy against N. dubius was judged on the basis of percent worm reduction compared to control non-medicated mice. In addition, for the purpose of evaluation, the compounds were administered orally to a series of animals at graded doses, each animal receiving a single dose, and the results against N. dubius expressed in terms of an Effective Dose50 (ED50), the ED50 representing the dose necessary to remove 50% of the worm burden.
(§2) Data obtained in anthelmintic screening tests against the helminth infections, N. dubius (a), H. nana (b) and S. obvelata (c), are given in the table below. Results are expressed in terms of the percent of animals cleared at a standard dose of 200 mg./kg./day (p.o.) for four days; as percent of animals cleared at a single dose (S.D.) of 25 mg./kg.; or as an ED50 on single dose administration (ED50) against N. dubius.

H. nana = test: Anthelmintic screening in mice against H. nana (tapeworm), four-day medication; format: in vivo, Hymenolepis nana in Swiss mice; conditions: 200 mg./kg./day p.o. for four days
Description: In tests against the tapeworm, H. nana, Swiss mice weighing approximately 20 grams were infected with approximately 12,000 ova of H. nana administered in 10% gelatin via stomach tube. The test compounds, made up in 10% gelatin, were administered via stomach tube in equally divided doses daily for four consecutive days beginning twelve days after infection. Four days after the final medication, the animals were sacrificed and examined for the presence of worms. Efficacy was judged by the percent of mice cleared compared to non-medicated control mice.
as §2

N. dubius [2] = test: Anthelmintic screening in mice against N. dubius (roundworm), four-day medication; format: in vivo, Nematospiroides dubius in Swiss mice; conditions: 200 mg./kg./day p.o. for four days
Description: as §1, §2

S. obvelata = test: Anthelmintic screening in mice against S. obvelata (pinworm), four-day medication; format: in vivo, Syphacia obvelata in Swiss mice; conditions: 200 mg./kg./day p.o. for four days
Source text: The same test procedures described above were used to assess the effectiveness of the compounds against S. obvelata, a naturally occurring pinworm infection in Swiss mice. Efficacy was judged by the percent of mice cleared of the infection compared to non-medicated control mice.
as §2

bacteria = conditions: Foye et al., J. Am. Pharm. Assoc. 47, 556-558 (1958); cited from earlier work

Structure (SMILES)	S.D. (percent of animals cleared at a single dose) (N. dubius [1]; single dose of 25 mg./kg., mice) [%]	% Cleared/200 mg./kg. (b) (H. nana) [%]	% Cleared/200 mg./kg. (a) (N. dubius [2]) [%]	% Cleared/200 mg./kg. (c) (S. obvelata) [%]	ED50 (N. dubius [1]) [mg/kg]	anti-bacterial activity (bacteria)
CSC(=S)Nc1ccc(N(C)C)cn1 [Example 3, methyl (5-dimethylamino-2-pyridyl)carbamodithioate]	64.5	0	100	0	–	–
CSC(=S)Nc1ccc(C)cn1 [Example 2, methyl (5-methyl-2-pyridyl)carbamodithioate]	–	30	100	30	7.75 ± 3.54	–
CSC(=S)Nc1ccc(Cl)cn1 [Example 1, methyl (5-chloro-2-pyridyl)carbamodithioate]	–	80	100	40	2 ± 0.917	–
CCSC(=S)Nc1ccccn1 [Ethyl (2-pyridyl)-carbamodithioate]	–	–	–	–	–	active as an anti-bacterial agent
